Results taken from BindingDB's records for doi:10.1021/acs.jmedchem.0c00435 (University of Bonn, 2020).

Legend:
[1] = Antagonist activity P2X1 receptor in human platelets assessed as inhibition of ADP-induced platelet aggregation pre-incubated for 30 mins before ADP stimulation by aggregometry
[2] = Antagonist activity P2X1 receptor in Apyrase pre-treated human platelets assessed as inhibition of TRAP6-induced platelet aggregation pre-incubated for 30 mins before TRAP6 stimulation by aggregometry
[3] = Antagonist activity P2X1 receptor in Apyrase pre-treated human platelets assessed as inhibition of collagen-induced platelet aggregation pre-incubated for 30 mins before collagen stimulation by aggregometry

Row | SMILES | IC50 [1] [µM] | IC50 [2] [µM] | IC50 [3] [µM]
1 | O=C(Nc1cc(Cl)cc(Cl)c1)c1cc(Cl)ccc1O | > 20 | > 10 | 3.03
2 | O=C(Nc1cc(F)cc(F)c1)c1cc(Cl)ccc1O | > 20 | > 10 | –
3 | O=S(=O)(Nc1cc(C(F)(F)F)cc(C(F)(F)F)c1)c1cc(Cl)ccc1O | > 20 | > 10 | 3.13
4 | O=C(Nc1cc(C(F)(F)F)cc(C(F)(F)F)c1)c1cc(Cl)ccc1O [TCMDC-125465] | 4.73 | 3.64 | 0.57

More lines, now with the values ahead:

Row | IC50 [1] [µM] | IC50 [2] [µM] | IC50 [3] [µM] | SMILES
5 | 5.47 | 4.8 | 1.14 | O=C(Nc1cc(C(F)(F)F)cc(C(F)(F)F)c1)c1ccc(Cl)cc1O
6 | – | 5.57 | 2.1 | O=C(Nc1cc(C(F)(F)F)cc(C(F)(F)F)c1)c1ccccc1 [N-(3,5-Bis(Trifluoromethyl)Phenyl)Benzamide]
